{
  "source": "patent US11254665B2",
  "about": "“Crystalline sulfamide compound” (CHIA TAI TIANQING PHARMACEUTICAL GROUP CO., LTD., priority 2017, dated 2022)",
  "key": {"[1]": {"test": "Pharmacokinetic experiments, single peroral administration", "assay_type": "in vivo", "settings": "rat; male SD rats, oral 5 mg/kg, suspension in 0.5% MC, 0.2% Tween80, plasma", "experimental": "Male SD rats were from Beijing Vital River Laboratory Animal Technology Co., Ltd., and divided into groups (3 rats per group). The rats were intragastrically administered with the test sample suspension (5 mg/kg) via a single peroral administration, respectively. The animals were fasted overnight before this study. The fasting time period was from 10 hours before administration to 4 hours after administration. Blood samples were taken at 0.25, 0.5, 1, 2, 4, 6, 8 and 24 hours after administration. After the rats were anesthetized with isoflurane using an anesthesia machine for small animal, and then 0.3 mL whole blood samples were taken from the fundus venous plexus. The blood samples were placed in heparin anticoagulant tubes, and centrifuged for 5 min at 4° C. and 4000 rpm. The plasma was transferred to centrifuge tubes, and stored at −80° C. till analysis. The samples in plasma were extracted through protein precipitation. The liquid extract was analyzed by LC-MS/MS, wherein HPLC conditions were as follows: flow rate 0.4 mL/min; mobile phase A: water/formic acid (99.9/0.1, v/v); mobile phase B: acetonitrile/formic acid (99.9/0.1, v/v); injection volume: 5 μL; column temperature: RT; autosampler temperature: RT; run time: 2.5 min."}, "[2]": {"target": "IDH1(R132C) (Homo sapiens, UniProt O75874, R132C)", "sequence (O75874 whole entry R132C)": "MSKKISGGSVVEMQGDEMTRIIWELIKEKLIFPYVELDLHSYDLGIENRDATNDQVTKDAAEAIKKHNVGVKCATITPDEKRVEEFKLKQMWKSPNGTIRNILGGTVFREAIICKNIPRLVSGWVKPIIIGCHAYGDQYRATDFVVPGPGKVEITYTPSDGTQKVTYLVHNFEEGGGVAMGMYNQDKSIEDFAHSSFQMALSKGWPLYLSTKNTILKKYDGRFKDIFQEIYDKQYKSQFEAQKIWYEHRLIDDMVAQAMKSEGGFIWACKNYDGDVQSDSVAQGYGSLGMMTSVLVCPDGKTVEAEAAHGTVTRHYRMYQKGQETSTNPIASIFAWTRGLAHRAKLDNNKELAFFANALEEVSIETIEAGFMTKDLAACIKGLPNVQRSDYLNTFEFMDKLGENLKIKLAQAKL", "test": "Enzyme assay (NADPH/diaphorase/resazurin), IDH1 mutant inhibition", "assay_type": "biochemical", "settings": "16 h pre-incubation with enzyme and NADPH at 23° C.", "excerpt": "(§1) Resazurin is a traditional redox dye, and after a redox reaction, it can be reduced from a blue resazurin without fluorescence to a pink fluorescent substance, resorufin, which can be measured and quantified with relative fluorescence unit (RFU) of fluorophotometer (Ex=530-570 nm, Em=590-620 nm). At present, resazurin is widely used for determining the viability of bacteria, cells, etc., and the enzyme activity detection of oxidoreductase. We detected the decrease of cofactor NADPH to determine the inhibitory activity of a compound against IDH1m and detected the generation of cofactor NADPH to determine the inhibitory activity of a compound against IDH WT. […] The amount of the remaining cofactor NADPH after a specific reaction time was quantified via an easily detectable fluorophore.\n(§2) The specific operation was as follows: 2.5 μl of the compound diluted in a 3-fold gradient was added to a 384-well plate, followed by adding 5 μl of the reaction buffer (20 mM Tris-HCl, pH 7.5; 150 mM NaCl; 10 mM MgCl2; 0.4 mg/mL BSA (Bovine Serum Albumin) and 2 mM DTT (dithiothreitol)) containing 40 nM IDH1 (R132H/R132C) and 20 μM NADPH. […] After incubating at 23° C. for 10 minutes, fluorescence values were determined through Flexstation 3 at Ex535/Em595. […]"}, "[3]": {"target": "IDH1(R132H) (Homo sapiens, UniProt O75874, R132H)", "sequence (O75874 whole entry R132H)": "as the sequence (O75874 whole entry R132C) above, with C132H counted along it", "test": "Enzyme assay (NADPH/diaphorase/resazurin), IDH1 mutant inhibition", "assay_type": "biochemical", "settings": "16 h pre-incubation with enzyme and NADPH at 23° C.", "excerpt": "as §1, §2"}, "[4]": {"test": "Stability influencing factors: high humidity test", "assay_type": "physicochemical", "experimental": "(§3) In accordance with “Stability Testing of New Drug Substances and Products” in ICH Q1A and “Guidelines for the Stability Testing of Drug Substances and Preparations” in Pharmacopoeia of China, fourth part, 2015 edition, 9001, the stability influencing factors were tested for the crystal of the monohydrate formula II, including high temperature, high humidity and light tests.\n(§4) In accordance with “Stability Testing of New Drug Substances and Products” in ICH Q1A and “Guidelines for the Stability Testing of Drug Substances and Preparations” in Pharmacopoeia of China, fourth part, 2015 edition, 9001, the stability influencing factors were tested for the crystal of the compound of formula I, including high temperature and high humidity tests.\n(§5) In accordance with “Stability Testing of New Drug Substances and Products” in ICH Q1A and “Guidelines for the Stability Testing of Drug Substances and Preparations” in Pharmacopoeia of China, fourth part, 2015 edition, 9001, the stability influencing factors were tested for the amorphous form of the compound of formula I, including high temperature and high humidity tests."}, "[5]": {"test": "Stability influencing factors: high temperature test", "assay_type": "physicochemical", "experimental": "as §3, §4, §5"}},
  "data": [
    {"smiles": "N#Cc1ccnc(N2[C@H](C(=O)N(c3cccc(F)c3)[C@H](C(=O)NC3CC(F)(F)C3)c3ccccc3Cl)CCS2(=O)=O)c1", "note": "[Compound of formula I, (S)—N—((S)-1-(2-chlorophenyl)-2-((3,3-difluorocyclobutyl)amino)-2-oxoethyl)-2-(4-cyanopyridin-2-yl)-N-(3-fluorophenyl)-isothiazolidine-3-carboxamide 1,1-dioxide]", "values": [
      {"measurement": "Tmax", "setting": "[1]", "value": 4, "unit": "h"},
      {"measurement": "IC50", "setting": "[2]", "value": "< 20", "unit": "nM"},
      {"measurement": "IC50", "setting": "[3]", "value": "< 20", "unit": "nM"}
    ]},
    {"smiles": "N#Cc1ccnc(N2[C@H](C(=O)N(c3cccc(F)c3)[C@H](C(=O)NC3CC(F)(F)C3)c3ccccc3Cl)CCS2(=O)=O)c1", "note": "[amorphous form of the compound of formula I]", "values": [
      {"measurement": "Appearance", "setting": "[4]; 0 day", "value": "White"},
      {"measurement": "Total impurities (%)", "setting": "[4]; 0 day", "value": 0.28, "unit": "%"},
      {"measurement": "Water (%)", "setting": "[4]; 0 day", "value": 1.4, "unit": "%"},
      {"measurement": "Appearance", "setting": "[4]; 75% RH, 5 day", "value": "White"},
      {"measurement": "Total impurities (%)", "setting": "[4]; 75% RH, 5 day", "value": 0.30, "unit": "%"},
      {"measurement": "Water (%)", "setting": "[4]; 75% RH, 5 day", "value": 1.7, "unit": "%"},
      {"measurement": "Appearance", "setting": "[4]; 75% RH, 10 day", "value": "White"},
      {"measurement": "Total impurities (%)", "setting": "[4]; 75% RH, 10 day", "value": 0.30, "unit": "%"},
      {"measurement": "Water (%)", "setting": "[4]; 75% RH, 10 day", "value": 1.8, "unit": "%"},
      {"measurement": "Appearance", "setting": "[4]; 75% RH, 30 day", "value": "White"},
      {"measurement": "Total impurities (%)", "setting": "[4]; 75% RH, 30 day", "value": 0.27, "unit": "%"},
      {"measurement": "Water (%)", "setting": "[4]; 75% RH, 30 day", "value": 1.8, "unit": "%"},
      {"measurement": "Appearance", "setting": "[4]; 92.5% RH, 5 day", "value": "White"},
      {"measurement": "Total impurities (%)", "setting": "[4]; 92.5% RH, 5 day", "value": 0.30, "unit": "%"},
      {"measurement": "Water (%)", "setting": "[4]; 92.5% RH, 5 day", "value": 2.1, "unit": "%"},
      {"measurement": "Appearance", "setting": "[4]; 92.5% RH, 10 day", "value": "White"},
      {"measurement": "Total impurities (%)", "setting": "[4]; 92.5% RH, 10 day", "value": 0.29, "unit": "%"},
      {"measurement": "Water (%)", "setting": "[4]; 92.5% RH, 10 day", "value": 2.3, "unit": "%"},
      {"measurement": "Appearance", "setting": "[4]; 92.5% RH, 30 day", "value": "White"},
      {"measurement": "Total impurities (%)", "setting": "[4]; 92.5% RH, 30 day", "value": 0.26, "unit": "%"},
      {"measurement": "Water (%)", "setting": "[4]; 92.5% RH, 30 day", "value": 2.4, "unit": "%"},
      {"measurement": "Appearance", "setting": "[5]; 0 day", "value": "White"},
      {"measurement": "Total impurities (%)", "setting": "[5]; 0 day", "value": 0.28, "unit": "%"},
      {"measurement": "Water (%)", "setting": "[5]; 0 day", "value": 1.4, "unit": "%"},
      {"measurement": "Appearance", "setting": "[5]; 40° C., 5 day", "value": "White"},
      {"measurement": "Total impurities (%)", "setting": "[5]; 40° C., 5 day", "value": 0.25, "unit": "%"},
      {"measurement": "Water (%)", "setting": "[5]; 40° C., 5 day", "value": 1.1, "unit": "%"},
      {"measurement": "Appearance", "setting": "[5]; 40° C., 10 day", "value": "White"},
      {"measurement": "Total impurities (%)", "setting": "[5]; 40° C., 10 day", "value": 0.28, "unit": "%"},
      {"measurement": "Water (%)", "setting": "[5]; 40° C., 10 day", "value": 1.0, "unit": "%"},
      {"measurement": "Appearance", "setting": "[5]; 40° C., 30 day", "value": "White"},
      {"measurement": "Total impurities (%)", "setting": "[5]; 40° C., 30 day", "value": 0.26, "unit": "%"},
      {"measurement": "Water (%)", "setting": "[5]; 40° C., 30 day", "value": 0.8, "unit": "%"},
      {"measurement": "Appearance", "setting": "[5]; 60° C., 5 day", "value": "White"},
      {"measurement": "Total impurities (%)", "setting": "[5]; 60° C., 5 day", "value": 0.31, "unit": "%"},
      {"measurement": "Water (%)", "setting": "[5]; 60° C., 5 day", "value": 0.8, "unit": "%"},
      {"measurement": "Appearance", "setting": "[5]; 60° C., 10 day", "value": "White"},
      {"measurement": "Total impurities (%)", "setting": "[5]; 60° C., 10 day", "value": 0.27, "unit": "%"},
      {"measurement": "Water (%)", "setting": "[5]; 60° C., 10 day", "value": 0.6, "unit": "%"},
      {"measurement": "Appearance", "setting": "[5]; 60° C., 30 day", "value": "White"},
      {"measurement": "Total impurities (%)", "setting": "[5]; 60° C., 30 day", "value": 0.28, "unit": "%"},
      {"measurement": "Water (%)", "setting": "[5]; 60° C., 30 day", "value": 0.5, "unit": "%"}
    ]}
  ]
}
